Source: ChEMBL document CHEMBL1201862, “PubChem BioAssay data set” (2004)
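Growth conditions: 96-well plates. Treatment: test compound, 48 hours, 5 concentrations. Analysis: linear interpolation between bracketing concentrations; unreached endpoints set to highest concentration. GI50 is the concentration that inhibits growth by half.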 Activity calls are given as the source filed them. Cut-off read from the data, not from the text of the source: active = GI50 up to about 1.1 µM and inactive = higher.

Key:
Test in all cases: NCI-60 cell line screen, 48 h
[1] = system: BT-549
[2] = system: IGROV-1
[3] = system: KM12
[4] = system: NCI-H522
[5] = system: NCI-H23
[6] = system: EKVX
[7] = system: K562
[8] = system: HCC 2998
[9] = system: OVCAR-3
[10] = system: TK-10
[11] = system: 786-0
[12] = system: HT-29
[13] = system: LOX IMVI
[14] = system: ACHN
[15] = system: SN12C
[16] = system: T47D
[17] = system: COLO 205
[18] = system: M14
[19] = system: Malme-3M
[20] = system: SK-MEL-2

With `O=C1Cc2c(-c3ccc(Cl)cc3)cc(-c3ccccc3)nc2-c2ccccc2N1` the GI50 [1] was 21.4 µM (inactive), the GI50 [2] was 6.95 µM (inactive) and the GI50 [3] was 9.25 µM (inactive). The GI50 [4] was 8.38 µM (inactive), the GI50 [5] was 10.5 µM (inactive) and the GI50 [6] was 10.5 µM (inactive). The GI50 [7] was 15.1 µM (inactive), the GI50 [8] was 4.06 µM (inactive) and the GI50 [9] was 11.7 µM (inactive). For the same compound, the GI50 [10] was 6.07 µM (inactive), the GI50 [11] was 2.03 µM (inactive) and the GI50 [12] was 4.5 µM (inactive). For the same compound, the GI50 [13] was 6.56 µM (inactive), the GI50 [14] was 5.09 µM (inactive) and the GI50 [15] was 3.71 µM (inactive). The GI50 [16] was 2.66 µM (inactive), the GI50 [17] was 2.46 µM (inactive) and the GI50 [18] was 11.6 µM (inactive). For the same compound, the GI50 [19] was 17 µM (inactive) and the GI50 [20] was 26.6 µM (inactive).
`COc1ccc(OC)c(N2C(=O)/C(=C\c3ccccc3)SC2c2cc(OC)c(OC)c(OC)c2)c1` (stereo not given) was tested, and the GI50 [1] was 68.4 µM (inactive), the GI50 [2] was 29.8 µM (inactive) and the GI50 [3] was 61.5 µM (inactive). For the same compound, the GI50 [4] was 30.9 µM (inactive), the GI50 [5] was > 80.5 µM (inactive) and the GI50 [6] was > 83.6 µM (inactive). For the same compound, the GI50 [7] was 50.9 µM (inactive), the GI50 [8] was > 100 µM (inactive) and the GI50 [9] was 62.4 µM (inactive). For the same compound, the GI50 [10] was > 100 µM (inactive), the GI50 [11] was > 96.6 µM (inactive) and the GI50 [12] was > 87.3 µM (inactive). For the same compound, the GI50 [13] was > 100 µM (inactive), the GI50 [14] was 1.09 µM (active) and the GI50 [15] was > 100 µM (inactive). The GI50 [16] was 12.4 µM (inactive), the GI50 [17] was > 91.6 µM (inactive) and the GI50 [18] was > 100 µM (inactive). The GI50 [19] was > 100 µM (inactive) and the GI50 [20] was > 100 µM (inactive).
For `C[C@]12CC[C@@H]3c4cc(OCC(F)(F)F)c(O)cc4CC[C@H]3[C@@H]1CC[C@@H]2O`, the GI50 [1] was 18.4 µM (inactive), the GI50 [2] was 6.89 µM (inactive) and the GI50 [3] was 4.06 µM (inactive). For the same compound, the GI50 [4] was 0.558 µM (active), the GI50 [5] was 4.75 µM (inactive) and the GI50 [6] was 8.17 µM (inactive). The GI50 [7] was 0.438 µM (active), the GI50 [8] was 5.93 µM (inactive) and the GI50 [9] was 0.459 µM (active). For the same compound, the GI50 [10] was 12 µM (inactive), the GI50 [11] was 3.24 µM (inactive) and the GI50 [12] was 4.06 µM (inactive). The GI50 [13] was 2.94 µM (inactive), the GI50 [14] was 7.74 µM (inactive) and the GI50 [15] was 1.86 µM (inactive). For the same compound, the GI50 [16] was 5.41 µM (inactive), the GI50 [17] was 15 µM (inactive) and the GI50 [18] was 1.52 µM (inactive). For the same compound, the GI50 [19] was 0.673 µM (active) and the GI50 [20] was 4.55 µM (inactive).
For `C[C@]12CCC(=O)C=C1CC[C@@H]1[C@@H]2[C@@H](O)C[C@@]2(C)[C@H]1CC[C@]2(O)C(=O)CO` [HYDROCORTISONE], the GI50 [1] was > 100 µM (inactive), the GI50 [2] was > 100 µM (inactive) and the GI50 [3] was > 100 µM (inactive). The GI50 [4] was > 100 µM (inactive), the GI50 [5] was > 100 µM (inactive) and the GI50 [6] was > 82.4 µM (inactive). For the same compound, the GI50 [7] was > 100 µM (inactive), the GI50 [8] was > 100 µM (inactive) and the GI50 [9] was > 100 µM (inactive). The GI50 [10] was > 100 µM (inactive), the GI50 [11] was > 100 µM (inactive) and the GI50 [12] was > 100 µM (inactive). The GI50 [13] was > 100 µM (inactive), the GI50 [14] was > 100 µM (inactive) and the GI50 [15] was 31.8 µM (inactive). For the same compound, the GI50 [16] was > 100 µM (inactive), the GI50 [17] was > 100 µM (inactive) and the GI50 [18] was > 100 µM (inactive). For the same compound, the GI50 [19] was > 100 µM (inactive) and the GI50 [20] was > 100 µM (inactive).
In the case of `COc1cc(C=C(c2ccc(N(C)C)cc2)c2ccc(N(C)C)cc2)c2ccccc2c1OC`, the GI50 [1] was 35.2 µM (inactive), the GI50 [2] was > 100 µM (inactive) and the GI50 [3] was 38.4 µM (inactive). The GI50 [4] was 25.4 µM (inactive), the GI50 [5] was > 100 µM (inactive) and the GI50 [6] was > 100 µM (inactive). The GI50 [7] was 17.5 µM (inactive), the GI50 [8] was 87.7 µM (inactive) and the GI50 [9] was 27.2 µM (inactive). For the same compound, the GI50 [10] was > 100 µM (inactive), the GI50 [11] was > 100 µM (inactive) and the GI50 [12] was 19 µM (inactive). For the same compound, the GI50 [13] was 64.9 µM (inactive), the GI50 [14] was 49.4 µM (inactive) and the GI50 [15] was > 100 µM (inactive). The GI50 [16] was > 100 µM (inactive), the GI50 [17] was 55.7 µM (inactive) and the GI50 [18] was 63.1 µM (inactive). For the same compound, the GI50 [19] was 70.8 µM (inactive) and the GI50 [20] was 33.9 µM (inactive).
With `CCCCCCCC(=O)OC[n+]1ccc(-c2c(COC(=O)NC(C)C)c(COC(=O)NC(C)C)c3n2CCC3)cc1` the GI50 [1] was > 52.7 µM (inactive), the GI50 [2] was 31 µM (inactive) and the GI50 [3] was > 100 µM (inactive). For the same compound, the GI50 [4] was 26.4 µM (inactive), the GI50 [5] was 35.2 µM (inactive) and the GI50 [6] was > 79.6 µM (inactive). The GI50 [7] was 34.4 µM (inactive), the GI50 [8] was > 100 µM (inactive) and the GI50 [9] was > 62.7 µM (inactive). For the same compound, the GI50 [10] was > 67.5 µM (inactive), the GI50 [11] was 27 µM (inactive) and the GI50 [12] was 42.6 µM (inactive). For the same compound, the GI50 [13] was 20.1 µM (inactive), the GI50 [14] was 20.4 µM (inactive) and the GI50 [15] was 33.4 µM (inactive). The GI50 [16] was > 64.9 µM (inactive), the GI50 [17] was 48.9 µM (inactive) and the GI50 [18] was 49.8 µM (inactive). For the same compound, the GI50 [19] was 44.9 µM (inactive) and the GI50 [20] was 22.1 µM (inactive).
With `NC(CSCc1ccc(I)cc1)C(=O)O` (stereo not given) the GI50 [1] was > 100 µM (inactive), the GI50 [2] was > 100 µM (inactive) and the GI50 [3] was > 100 µM (inactive). For the same compound, the GI50 [4] was > 100 µM (inactive), the GI50 [5] was > 100 µM (inactive) and the GI50 [6] was > 100 µM (inactive). For the same compound, the GI50 [7] was > 100 µM (inactive), the GI50 [8] was > 100 µM (inactive) and the GI50 [9] was > 100 µM (inactive). For the same compound, the GI50 [10] was > 100 µM (inactive), the GI50 [11] was > 100 µM (inactive) and the GI50 [12] was > 100 µM (inactive). For the same compound, the GI50 [13] was > 100 µM (inactive), the GI50 [14] was > 100 µM (inactive) and the GI50 [15] was > 100 µM (inactive). The GI50 [16] was > 100 µM (inactive), the GI50 [17] was > 100 µM (inactive) and the GI50 [18] was > 100 µM (inactive). The GI50 [19] was > 100 µM (inactive) and the GI50 [20] was > 100 µM (inactive).
In the case of `CCOC(=O)c1c(C)n(CCN2CCN(C)CC2)c2ccc(OC)cc12`, the GI50 [1] was 45.4 µM (inactive), the GI50 [2] was 31.2 µM (inactive) and the GI50 [3] was 44.3 µM (inactive). For the same compound, the GI50 [4] was 28.6 µM (inactive), the GI50 [5] was > 100 µM (inactive) and the GI50 [6] was > 100 µM (inactive). For the same compound, the GI50 [7] was 20.7 µM (inactive), the GI50 [8] was 16.6 µM (inactive) and the GI50 [9] was > 100 µM (inactive). The GI50 [10] was 33.3 µM (inactive), the GI50 [11] was 38 µM (inactive) and the GI50 [12] was 24.7 µM (inactive). The GI50 [13] was 16.6 µM (inactive), the GI50 [14] was 65 µM (inactive) and the GI50 [15] was 50.9 µM (inactive). For the same compound, the GI50 [16] was 34.4 µM (inactive), the GI50 [17] was 16.9 µM (inactive) and the GI50 [18] was 16 µM (inactive). The GI50 [19] was 21.9 µM (inactive) and the GI50 [20] was 17.6 µM (inactive).
For `O=C1CSC(c2ccccc2O)N1c1ccc(Oc2ccc(Cl)cc2)c(Cl)c1` (stereo not given), the GI50 [1] was 13.1 µM (inactive), the GI50 [2] was 8.91 µM (inactive) and the GI50 [3] was 17.5 µM (inactive). For the same compound, the GI50 [4] was 15.3 µM (inactive), the GI50 [5] was 18.1 µM (inactive) and the GI50 [6] was 16.8 µM (inactive). The GI50 [7] was 29.9 µM (inactive), the GI50 [8] was 17.7 µM (inactive) and the GI50 [9] was 18.6 µM (inactive). The GI50 [10] was 36.1 µM (inactive), the GI50 [11] was 18.8 µM (inactive) and the GI50 [12] was 19.7 µM (inactive). For the same compound, the GI50 [13] was 16.6 µM (inactive), the GI50 [14] was 28.2 µM (inactive) and the GI50 [15] was 22.1 µM (inactive). For the same compound, the GI50 [16] was 11.7 µM (inactive), the GI50 [17] was 18.5 µM (inactive) and the GI50 [18] was 29.8 µM (inactive). For the same compound, the GI50 [19] was 11.9 µM (inactive) and the GI50 [20] was 24.3 µM (inactive).
